Legend:
RE strain HSV-1 [1] = assay: HSV-1 recovery from tear film, cornea and trigeminal ganglia of treated rabbits; type: in vivo, NZW rabbit; details: for HSV-1 recovery, corneal epithelium (C.E.) / HSV-1 recovery, corneal stroma (C.S.) / HSV-1 recovery, trigeminal ganglia (T.G.) / HSV-1 recovery, tear film (positive samples of total): Example 3 (Table 22); for recovery of HSV-1 in tear film: Example 4; for HSV-1 recovery, corneal stroma / HSV-1 recovery (positive cultures per total): Example 5 (Table 23)
Excerpt: The specified number of NZW rabbits (1.5-2.0 kg) were used. Animals were received at least two days prior to inoculation to allow them to accommodate to the conditions in the vivarium facility. This conditioning of the animals prior to inoculation minimizes animal variability. After the accommodation, the animals received a slit-lamp examination to exclude any animals with pre-existing anterior segment ocular defects. Animals were bi-laterally inoculated by intrastromal injection of 10^5 PFU RE strain HSV-1. The animals were then replaced individually into cages.
[…] This was carried out by obtaining tear film by swabbing the lower and upper conjunctival sacs and retaining the swab in the nasal fornix for 10 seconds. The swabs were eluted individually in HBSS. 50 μl aliquots of the virus-HBSS eluate were absorbed under confluent HFF cell monolayers for 5 minutes. The monolayers were hydrated with MEM, incubated at 37° C. and observed daily for 1 to 2 weeks to detect developing cytopathology consistent with HSV infection (HSV CPE).
(§1) On day 10 PI, the animals were sacrificed, the corneal epithelium was scraped from the eyes and epithelial and corneal stromal cultures were preformed on HFF cell monolayers. The separation of epithelial virus from deeper stromal virus infection allows for analysis of HSV in these distinct corneal layers. Corneal epithelial and stromal co-cultures were evaluated daily by inverted light microscopy.
At sacrifice, trigeminal ganglia were removed, washed in HBSS, minced and floated over duplicate HFF cell monolayers. The cell co-cultures were monitored by inverted light microscopy for 2 weeks. Negative cultures were blind passaged twice at 7 day intervals. Detection of HSV CPE in the whole-cell co-cultures was scored either positive or negative. HSV recovery from inventive compound-treated, TFT-treated and placebo-treated trigeminal ganglia was compared and differences in recovery rates analyzed.
as §1, with “7” for “10”, “performed” for “preformed”

HFF cells [2] = assay: Neutral red uptake toxicity; type: cell-based, human; details: stationary cells
HFF cells [3] = assay: Cell proliferation assay; type: cell-based, human; details: rapidly growing cells
Protocol: Twenty-four hours prior to assay, HFF cells are seeded in 6-well plates at a concentration of 2.5×10^4 cells per well in MEM containing 10% FBS. On the day of the assay, drugs are diluted serially in MEM containing 10% FBS at increments of 1:5 covering a range from 100 μg/ml to 0.03 μg/ml. […] The media from the wells is then aspirated and 2 ml of each drug concentration is then added to each well. The cells are then incubated in a Co2 incubator at 37° C. for 72 h. At the end of this time, the media-drug solution is removed and the cells washed. […] The cell-media mixture is then pipetted up and down vigorously to break up the cell suspension and 0.2 ml of the mixture is added to 9.8 ml of Isoton III and counted using a Coulter Counter. Each sample is counted three times with three replicate wells per sample.

RE strain HSV-1 [4] = assay: Topical efficacy in RE strain HSV-1-induced stromal keratitis in the rabbit; type: in vivo, NZW rabbit; details: for efficacy ranking during stromal HSV-1 infection: Example 3, all eyes, FIG. 1, 1 mg/ml (TFT 0.1%), 9x/day, 5 days; for efficacy ranking, average stromal disease scores: Example 4, FIG. 2
Protocol: The following examples describe topical ocular evaluation of the inventive compounds during RE strain HSV-1-induced stromal keratitis in the rabbit. These evaluations included analysis of the topical efficacy of both the inventive compounds alone, or, in certain instances, in combination with trifluorothymidine (TFT). The evaluation was carried out by the combined analysis of both clinical and virological (HSV-1 recovery) parameters. The specified number of NZW rabbits (1.5-2.0 kg) were used. Animals were received at least two days prior to inoculation to allow them to accommodate to the conditions in the vivarium facility. This conditioning of the animals prior to inoculation minimizes animal variability. After the accommodation, the animals received a slit-lamp examination to exclude any animals with pre-existing anterior segment ocular defects. Animals were bi-laterally inoculated by intrastromal injection of 10^5 PFU RE strain HSV-1. The animals were then replaced individually into cages. On day number three post-inoculation (PI), the animals were evaluated by slit-lamp microscopy. Corneal stromal, iris and conjunctival disease were graded on an increasing scale of severity from 0+ to 4+. After evaluation, the animals were divided into a specified number of groups each containing an equal number of animals based on a matched corneal stromal involvement. Topical therapy was initiated immediately after animal groupings. All animals received daily slit-lamp evaluations from day 3 through 7 PI. The ocular HSV-1 induced disease severity was recorded daily. […] Differences in disease resolution and development of stromal alterations are statistically analyzed. Virus recovery during and after topical therapy was compared. The topical efficacy of Compounds 23 and 96 on stromal HSV-1 infection in the rabbit model of stromal keratitis was evaluated. All animals received daily slit lamp evaluations from day 3 through day 7 and on days 9 and 10 PI. The ocular HSV-1-induced disease severity was recorded daily. The topical efficacy of Compounds 23, 96 and 82 on stromal HSV-1 infection in the rabbit model of stromal keratitis was evaluated. All animals received daily slit lamp evaluations for day 3 through day 7 PI. The ocular HSV-1-induced disease severity was recorded daily. The topical efficacy of Compounds 23 and 96 in combination with TFT on stromal HSV-1 infection in the rabbit model of stromal keratitis was evaluated. Groups 1, 2 and 3 each have 5 animals for a total of 10 eyes per combination therapy. This allowed minimization of individual animal variability and performance of a statistical analysis on the results of the combination therapies. Groups 3, 4 and 5 have 2 animals each. These single-agent therapies were used to verify previously reported data on the efficacy of these compounds. The compounds are used at a lower frequency of delivery to match the dosing regimen of the combination-agent group. Consequently, the study also provides comparative information on Compounds 23 and 96 as a lower frequency of topical administration (4 times per day vs. 9 times per day in previous studies).

| Structure (SMILES) | HSV-1 recovery, corneal epithelium (C.E.) (RE strain HSV-1 [1]) | HSV-1 recovery, corneal stroma (C.S.) (RE strain HSV-1 [1]) | HSV-1 recovery, trigeminal ganglia (T.G.) (RE strain HSV-1 [1]) | HSV-1 recovery, tear film (positive samples of total) (RE strain HSV-1 [1]; day 3 PI) | HSV-1 recovery, tear film (positive samples of total) (RE strain HSV-1 [1]; day 5 PI) | HSV-1 recovery, tear film (positive samples of total) (RE strain HSV-1 [1]; day 7 PI) | HSV-1 recovery, tear film (positive samples of total) (RE strain HSV-1 [1]; day 9 PI) | recovery of HSV-1 in tear film (RE strain HSV-1 [1]) | HSV-1 recovery, corneal stroma (RE strain HSV-1 [1]) | HSV-1 recovery (positive cultures per total) (RE strain HSV-1 [1]; column 1) | HSV-1 recovery (positive cultures per total) (RE strain HSV-1 [1]; column 3) | HSV-1 recovery (positive cultures per total) (RE strain HSV-1 [1]; column 5) | HSV-1 recovery (positive cultures per total) (RE strain HSV-1 [1]; column 7) | toxicity IC50, neutral red uptake (HFF cells [2]) | toxicity IC50, cell proliferation (HFF cells [3]) | efficacy ranking during stromal HSV-1 infection (RE strain HSV-1 [4]) | efficacy ranking, average stromal disease scores (RE strain HSV-1 [4]) | further results |
| --- | --- | --- | --- | --- | --- | --- | --- | --- | --- | --- | --- | --- | --- | --- | --- | --- | --- | --- |
| CC1=CC(C)=[N+]2CC[N+]3=C(C)C=C(C)[O][Co-3]23([NH3+])([NH3+])[O]1.[Cl-] [Compound 23, reference compound] | 20% | 50% | 50% | 100% | 100% | 80% | 0% | reduced the recovery of HSV-1 in tear film | 80% | 0% | 100% | 90% | 80% | 11.5 MCG/ML | 6.2 MCG/ML | Compound 96>>Compound 23>TFT>Placebo | Compound 96>Compound 82>Compound 23>TFT=Placebo | HSV-1 recovery from corneal epithelial cultures vs other therapy groups (RE strain HSV-1 [1]; Example 3): significantly reduced; efficacy vs TFT therapy (RE strain HSV-1 [4]; Example 3, days 7, 9 and 10 PI): superior to TFT therapy; effect on stromal disease severity/progression (RE strain HSV-1 [4]; Example 5, FIG. 5, initial stromal disease <0.5 on day 3 PI): slowed the progression of stromal disease |
| CC([O-])=CC(C)=NCCN=C(C)C=C(C)[O-].[Cl-].[Co+3].c1c[nH]cn1.c1c[nH]cn1 [Compound 82] | – | – | – | – | – | – | – | reduced the recovery of HSV-1 in tear film | – | – | – | – | – | – | – | – | Compound 96>Compound 82>Compound 23>TFT=Placebo | efficacy relative to Compounds 23 and 96 (RE strain HSV-1 [4]; Example 4): intermediate between Compounds 23 and 96; reduction of stromal disease development (RE strain HSV-1 [4]; Example 4, 1 mg/ml, severity <0.5+ on day 3 PI): effective in reducing the development of stromal disease; effect on development or progression of stromal disease (RE strain HSV-1 [4]; Example 4, severity >0.75): did not alter the development or progression of stromal disease |
| CC(=NCCN=C(C)C(Cl)=C(C)[O-])C(Cl)=C(C)[O-].[Br-].[Co+3].c1c[nH]cn1.c1c[nH]cn1 [Compound 93] | – | – | – | – | – | – | – | – | – | – | – | – | – | 27.3 MCG/ML | 25.0 MCG/ML | – | – | – |
| CC([O-])=CC(C)=NCCN=C(C)C=C(C)[O-].Cc1ncc[nH]1.Cc1ncc[nH]1.[Br-].[Co+3] [Compound 96] | 50% | 50% | 50% | 100% | 100% | 80% | 0% | reduced the recovery of HSV-1 in tear film | 70% | 0% | 100% | 90% | 70% | 22.0 MCG/ML | 21.0 MCG/ML | Compound 96>>Compound 23>TFT>Placebo | Compound 96>Compound 82>Compound 23>TFT=Placebo | comparison with all other therapies in reducing/preventing corneal stromal keratitis (RE strain HSV-1 [4]; Example 3): superior to all other therapies in reducing and/or preventing the development of corneal stromal keratitis; scarring vs TFT animals (RE strain HSV-1 [4]; Example 3): significantly lower than the scarring in the TFT animals; comparison with compound 23 (RE strain HSV-1 [4]; Example 3, all of the therapies used): superior properties in all of the therapies used in the studies as compared to compound 23; efficacy vs other topical therapies (RE strain HSV-1 [4]; Example 3, days 4, 5 and 6 PI): significantly better results than the other topical therapies; efficacy vs TFT, Placebo and Compound 23 (RE strain HSV-1 [4]; Example 3, eyes with stromal disease <0.75 on day 3 PI): statistically better than TFT, Placebo and Compound 23; difference between Compound 96 single-agent and Compound 96 plus TFT (RE strain HSV-1 [4]; Example 5, FIG. 7, <0.5 on day 3 PI): No difference; effect on development and progression of stromal disease (RE strain HSV-1 [4]; Example 5, FIG. 7, score <0.5 on day 3 PI, 4 times per day): highly effective and slowed the progression and development stromal disease |

Source: US5756491A, “Antiviral cobalt-organic compounds” (priority 1991, dated 1998)
